Legend:
[1] = tested on: human lung carcinoma A549; experiment: MTT colorimetric proliferation test, 5 days; format: cell-based; details: 120 h, read-out: percentage of cell proliferation relative to the untreated control taken as 100%
Description: (§1) Among other cells used, the following lines were routinely cultured in RPMI medium supplemented with 10% foetal calf serum (FCS):
human lung carcinoma A549
(§2) The antitumour activity is measured according to the colorimetry method using MTT, 3-(4,5-dimethylthiazole-2,5-diphenyltetrazolium) bromide as described by Mosmann T., Journ. of Im. Methods; 1983, 65, 55.
(§3) This colorimetric assay makes it possible to measure quantitatively the antitumour activity of a solution containing a compound used according to the invention.
(§4) According to the procedure used, the suspended cells (such as the myeloma cells) are inoculated at 2×10^3 cells/ml in 1 ml wells in defined medium. The adherent cells (such as the MCF-7 cells) are inoculated at 5×10^4 cells/ml in 1 ml wells in RPMI medium+0.5% FCS overnight. The next day, the cell carpet is washed twice and replaced by the defined medium.
(§5) The defined medium corresponds to: RPMI+10 μg/ml insulin+10 μg/ml human transferrin.
(§6) In order to carry out this test, cells are maintained in the presence of the solution containing a compound used according to the invention for 5 days, and the MTT is then added to the culture medium.
(§7) The 5 day period which was selected corresponds to the optimum time for the activity. After culturing for 5 days, the proliferation of the cells is measured by the test described above. The optical density at 570 nm is measured. A blue coloration develops in the wells where the cells are still alive. The intensity of the coloration is proportional to the quantity of live cells.

[2] = tested on: 293; experiment: MTT colorimetric proliferation test, 5 days; format: cell-based; details: Homo sapiens, read-out: percentage of cell proliferation relative to the untreated control taken as 100%
Description: as §1
human kidney carcinoma 294
as §2, §3, §4, §5, §6, §7

[3] = tested on: tumour cells; experiment: biochemical and pharmacological studies illustrated above (binding and antiproliferative tests)
Description: The membranes were prepared as follows: 10 MCF-7 cells are homogenized for 10 seconds on a Polytron® in 10 ml of Hepes® buffer pH=7.4 containing: 210 mM D-mannitol, 70 mM sucrose, 1 mM EDTA, 0.3 mM PMSF. The homogenate is centrifuged at 650 xg for 15 minutes and the supernatant is then taken up and centrifuged for 1 at 100,000 xg. The pellet is resuspended in Tris-HCl buffer pH=7.4 at a concentration of 1 mg/ml and stored at-70° C. The total binding is carried out in a 5 ml tube into which the following are introduced:
The non-specific binding is performed by adding 25 μl of 10^-5 M SR 31747 to the above solution (final volume 250 μl) and then incubating for 30 at 25° C. The free and bound fractions are separated by placing 200 μl on a column of 1 ml of Sephadex® LH 20 and the radioactivity is then counted on the first 2 ml obtained by eluting the column with 50 mM Tris buffer ph=7.4.
The 5 day period which was selected corresponds to the optimum time for the activity. After culturing for 5 days, the proliferation of the cells is measured by the test described above. The optical density at 570 nm is measured. […] The intensity of the coloration is proportional to the quantity of live cells.

[4] = tested on: human myeloma U266; experiment: MTT colorimetric proliferation test, 5 days; format: cell-based; details: U-266, 120 h, read-out: percentage of cell proliferation relative to the untreated control taken as 100%
Description: as §1, §2, §3, §4, §5, §6, §7

[5] = tested on: human myeloma RPMI 8226; experiment: MTT colorimetric proliferation test, 5 days; format: cell-based; details: 120 h, read-out: percentage of cell proliferation relative to the untreated control taken as 100%
Description: as §1, §2, §3, §4, §5, §6, §7

[6] = tested on: MDA MB231 p131; experiment: proliferation of mammary epithelial cells, IC50 after 6 days; format: cell-based; details: 6 days of treatment
Description: (§8) Another study was also performed in order to determine the effect of SR 31747 on the in vitro and in vivo growth of mammary and prostate epithelial tumour cells.
(§9) The study consisted in evaluating the potential antitumour activity of SR 31747 on the growth of a variety of cancerous breast epithelial lines. The study is carried out in vitro on cell cultures, as well as in vivo after inoculation of tumoral mammary lines in "nude" athymic mice.
(§10) The cell lines which were used are as follows:
(§11) The hormone-sensitive MCF-7 line originates from a pleural effusion of a breast adenocarcinoma. The antioestrogen-resistant MCF-7LY2 cells were obtained from the MCF-7LCC1 and MCF-7LCC2 lines were developed in nude mice, after inoculation of the MCF-7 cells. The two lines are oestrogen-independent. The MCF-7CC2 cells are also antioestrogen-resistant. The MCF-7AZTD5 line is derived from the MCF-7 line after stable transfection with the H-ras oncogene. The MCF-7AZTD5 cells are antioestrogen-resistant in vitro. All of these lines are maintained on DMEM/F12 (1/1, vol/vol) containing 10% decomplemented foetal calf serum and 16 ng/ml of human insulin. The MCF-7LCC2 line is cultured in the permanent presence of 10^-7 M hydroxytamoxifen. The MDA-MB231 tumoral mammary epithelial cells are oestrogen- and antioestrogen-insensitive. They are cultured in L15 medium supplemented with 10% FCS, 1% essential amino acids and 10 μg/ml of human insulin.
(§12) All the lines are maintained at 37° C. in a humid air/CO2 (95%/5%) atmosphere, except for the MDA-MB231 cells which are cultured in the absence of CO2. THe cell lines are checked regularly free of mycoplasms.
(§13) Table B--Effect of SR 31747 on the proliferation of mammary epithelial cells. Determination of the IC50 after 6 days of treatment--medium changed every 48 hours

[7] = tested on: MCF7 RPMI p6-7; experiment: as above; format: cell-based; details: Homo sapiens, MCF7, 144 h, 6 days of treatment
Description: as §8, §9, §10, §11, §12, §13

[8] = tested on: LCC1 p23-24 (MCF-7LCC1); experiment: as above; format: cell-based; details: Homo sapiens, Epithelial cell, 144 h, 6 days of treatment
Description: as §8, §9, §10, §11, §12, §13

[9] = tested on: MCF7 AZ; experiment: as above; format: cell-based; details: Homo sapiens, 144 h, 10% FCS, 6 days of treatment
Description: as §8, §9, §10, §11, §12, §13

[10] = tested on: MCF7 22HTB RPMI p + 4; experiment: as above; format: cell-based; details: Homo sapiens, 144 h; MCF7 22HTB RPMI p + 4, 0.1% FCS, 6 days of treatment
Description: as §8, §9, §10, §11, §12, §13

[11] = tested on: LY2 p22-23 (MCF-7LY2); experiment: as above; format: cell-based; details: Homo sapiens, Epithelial cell, 144 h; LY2 p22-23, 10% FCS, 6 days of treatment
Description: as §8, §9, §10, §11, §12, §13

[12] = tested on: LCC2 p26-27 (MCF-7LCC2); experiment: as above; format: cell-based, human; details: 6 days of treatment
Description: as §8, §9, §10, §11, §12, §13

CCN(C/C=C\c1ccc(C2CCCCC2)c(Cl)c1)C1CCCCC1 [SR 31747, cis-N-Cyclohexyl-N-ethyl [3-(3-chloro-4-cyclo-hexylphenyl)allyl]amine]
activity at 10 pM ([1]; A549, 10 pM): 100% | activity at 0.0001 µM ([1]; A549, 100 pM): 88% | activity at 0.001 µM ([1]; A549, 1 nM): 56% | activity at 0.01 µM ([1]; A549, 10 nM): 50% | activity at 0.1 µM ([1]; A549, 100 nM): 38% | activity at 1 µM ([1]; A549, 1 μM): 14% | activity at 10 µM ([1]; A549, 10 μM): 10% | activity at 10 pM ([2]; HEK293, 120 h, 293, 10 pM): 100% | activity at 0.0001 µM ([2]; HEK293, 120 h, 293, 100 pM): 84% | activity at 0.001 µM ([2]; HEK293, 120 h, 293, 1 nM): 80% | activity at 0.01 µM ([2]; HEK293, 120 h, 293, 10 nM): 43% | activity at 0.1 µM ([2]; HEK293, 120 h, 293, 100 nM): 36% | activity at 1 µM ([2]; HEK293, 120 h, 293, 1 μM): 10% | activity at 10 µM ([2]; HEK293, 120 h, 293, 10 μM): 7% | activity in the biochemical and pharmacological studies [3]: best activity | activity at 10 pM ([4]; U266, 10 pM): 100% | activity at 0.0001 µM ([4]; U266, 100 pM): 100% | activity at 0.001 µM ([4]; U266, 1 nM): 95% | activity at 0.01 µM ([4]; U266, 10 nM): 82% | activity at 0.1 µM ([4]; U266, 100 nM): 67% | activity at 1 µM ([4]; U266, 1 μM): 52% | activity at 10 µM ([4]; U266, 10 μM): 11% | activity at 10 pM ([5]; RPMI 8226, 10 pM): 100% | activity at 0.0001 µM ([5]; RPMI 8226, 100 pM): 91% | activity at 0.001 µM ([5]; RPMI 8226, 1 nM): 79% | activity at 0.01 µM ([5]; RPMI 8226, 10 nM): 66% | activity at 0.1 µM ([5]; RPMI 8226, 100 nM): 54% | activity at 1 µM ([5]; RPMI 8226, 1 μM): 9% | activity at 10 µM ([5]; RPMI 8226, 10 μM): 6% | IC50 ([6]; Homo sapiens, MDA-MB-231, 144 h, MDA MB231 p131, 0.1% FCS): 2 nM | IC50 ([6]; Homo sapiens, MDA-MB-231, 144 h, MDA MB231 p131, 10% FCS): 800 nM | IC50 ([6]; MDA MB231 p131, 10% FCS): 400 nM | IC50 ([7]; MCF7 RPMI p6-7, 0% FCS): 3 nM | IC50 ([7]; MCF7 RPMI p6-7, 0.1% FCS): 7 nM | IC50 ([8]; LCC1 p23-24, 0.1% FCS): 2 nM | IC50 ([8]; LCC1 p23-24, 5% FCS): 1000 nM | IC50 [9]: > 1000 nM | IC50 [10]: 2 nM | IC50 [11]: > 100 nM | IC50 ([12]; Homo sapiens, LCC2, 144 h, LCC2 p26-27, 0.1 DCC): 2 nM | IC50 ([12]; Homo sapiens, LCC2, 144 h, LCC2 p26-27, 5% DCC): 400 nM | IC50 ([12]; LCC2 p26-27, 5% DCC): 300 nM
